“Also recorded” adds a separate entry of the source. Blank lines part the entries; values can stand above or below the molecule they belong to.
How the values were obtained:
OAT1 [1] = molecular target: T1, OAT1 (Homo sapiens, UniProt Q4U2R8); test: Transport kinetics of UTs in HEK293T-OAT1 cells; type: cell-based; conditions: HEK293T-OAT1/3 cells, 100 μM
T1 sequence (Q4U2R8 1-563): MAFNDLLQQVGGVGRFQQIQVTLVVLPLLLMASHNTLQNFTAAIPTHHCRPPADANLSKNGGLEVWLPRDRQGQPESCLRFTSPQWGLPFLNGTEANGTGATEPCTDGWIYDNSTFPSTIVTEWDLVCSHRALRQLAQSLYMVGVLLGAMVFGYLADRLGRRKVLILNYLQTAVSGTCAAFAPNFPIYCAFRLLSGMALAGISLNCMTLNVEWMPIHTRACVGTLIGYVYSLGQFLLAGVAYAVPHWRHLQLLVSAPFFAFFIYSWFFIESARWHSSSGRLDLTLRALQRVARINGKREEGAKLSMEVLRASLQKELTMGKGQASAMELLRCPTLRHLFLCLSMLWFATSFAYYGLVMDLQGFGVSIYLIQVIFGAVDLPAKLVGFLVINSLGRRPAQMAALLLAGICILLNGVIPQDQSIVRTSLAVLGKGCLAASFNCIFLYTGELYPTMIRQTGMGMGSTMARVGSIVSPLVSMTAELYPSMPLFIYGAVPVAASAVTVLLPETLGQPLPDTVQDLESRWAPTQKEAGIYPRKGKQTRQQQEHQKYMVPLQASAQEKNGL

rOAT1/3 = test: rOAT1/3−/− rat experiment; type: in vivo, rats; conditions: for renal elimination in rOAT1/3−/− rats: Fig. S7F
OAT4 = test: Specificity: uptake in OAT4-overexpressing cells; type: cell-based
rMRP4 [2] = type: in vivo, rats; conditions: rat, in vivo
rMRP4 [3] = type: in vivo, rats
[4] = type: in vivo, rats; conditions: rats
OAT1 [5] = molecular target: T1, OAT1; test: Uptake of UTs in HEK293T-OAT1 cells; type: cell-based; conditions: 100 μM, 30 min; for uptake of free UT in OAT1-overexpressing cells vs control cells: without HSA
serum protein = test: Protein-binding ratio of UTs in rat serum; type: in vitro ADME, rats; conditions: ultrafiltration at 37 °C
OAT3 = molecular target: T2, OAT3 (Homo sapiens, UniProt Q8TCC7); test: Uptake of UTs in HEK293T-OAT3 cells; type: cell-based; conditions: 100 μM, 30 min; for uptake of HSA-bound UT in OAT3-overexpressing cells vs control cells / uptake of free UT in OAT3-overexpressing cells vs control cells: 37 °C; for uptake of HSA-bound UT in OAT3-overexpressing cells vs control cells: with HSA; for uptake of free UT in OAT3-overexpressing cells vs control cells: without HSA
T2 sequence (Q8TCC7 1-542): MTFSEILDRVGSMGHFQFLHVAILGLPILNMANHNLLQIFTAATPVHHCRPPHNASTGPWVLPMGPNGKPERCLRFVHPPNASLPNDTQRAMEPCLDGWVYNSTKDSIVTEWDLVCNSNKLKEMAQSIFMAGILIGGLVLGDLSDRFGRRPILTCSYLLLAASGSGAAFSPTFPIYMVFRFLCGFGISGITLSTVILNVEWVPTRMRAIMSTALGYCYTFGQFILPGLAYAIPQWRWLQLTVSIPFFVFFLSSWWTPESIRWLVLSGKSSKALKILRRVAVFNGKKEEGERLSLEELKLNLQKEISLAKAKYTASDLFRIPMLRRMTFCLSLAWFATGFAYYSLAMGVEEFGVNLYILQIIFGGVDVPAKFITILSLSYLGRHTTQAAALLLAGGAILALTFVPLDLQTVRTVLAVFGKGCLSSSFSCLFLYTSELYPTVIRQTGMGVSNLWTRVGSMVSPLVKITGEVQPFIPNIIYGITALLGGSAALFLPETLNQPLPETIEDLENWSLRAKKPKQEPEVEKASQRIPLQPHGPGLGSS

rOATs = rOATs inhibition experiment
MRP4 = test: Intracellular accumulation of UTs in MRP4-overexpressing cells; type: cell-based, human; conditions: 100 μM, 30 min; for intracellular accumulation in MRP4-overexpressing cells vs control cells: 37 °C, 4 mM ATP
[6] = tested on: OAT1/3 and MRP4 double-transfected MDCK cells
[7] = Correlation between biomarkers and cefmetazole pharmacokinetics in rats; type: in vivo; conditions: for plasma concentrations in rats treated with PROB: PROB 60 and 120 mg/kg 7 days, cefmetazole 100 mg/kg i.v.
HSA = conditions: 4% HSA, about 100 μM UT, 37 °C, 2 h; cited from earlier work
[8] = tested on: OAT1/3-MRP4 double-transfected MDCK cells; test: Transcellular transport in OAT1/3-MRP4 double-transfected MDCK cells; type: cell-based
[9] = cited from earlier work
[10] = substrate: CCCc1oc(CCC(=O)O)c(C(=O)O)c1C; test: Transport kinetics of UTs in HEK293T-OAT3 cells; type: cell-based, human; conditions: other: HEK293T-OAT3, Michaelis-Menten
[11] = substrate: O=C(O)c1cc(=O)c2ccccc2[nH]1; test: Transport kinetics of UTs in HEK293T-OAT3 cells; type: cell-based, human; conditions: other: HEK293T-OAT3, Michaelis-Menten
[12] = substrate: CCCc1oc(CCC(=O)O)c(C(=O)O)c1C; test: Transport kinetics of UTs in HEK293T-OAT1 cells; type: cell-based, human; conditions: other: HEK293T-OAT1, Michaelis-Menten
[13] = substrate: O=C(O)c1cc(=O)c2ccccc2[nH]1; test: Transport kinetics of UTs in HEK293T-OAT1 cells; type: cell-based, human; conditions: other: HEK293T-OAT1, Michaelis-Menten
[14] = PROB 30, 60, 120 mg/kg oral, 7 days

Molecule: CN1CC(=O)NC1=N [Creatinine, creatinine]
- renal elimination in rOAT1/3−/− rats (rOAT1/3): unaffected
- plasma concentrations in rats treated with PROB [7]: did not change significantly
- renal clearance rate in rMRP4−/− rats vs WT (rMRP4 [2]): not significantly altered
- renal uptake ratio in rMRP4−/− rats vs WT (rMRP4 [2]): not significantly altered
- serum levels in rMRP4−/− rats vs WT (rMRP4 [2]): not significantly altered
- Protein-binding ratio, HSA binding in vitro (%) (n = 3) (HSA): below 50%
- Protein-binding ratio, Normal rats in vivo (%) (n = 6) (serum protein): less than 24%

Molecule: CN(C)c1nc2c(ncn2[C@@H]2O[C@H](CO)[C@@H](O)[C@H]2O)c(=O)[nH]1 [N, N-dimethylguanosine, N,N-dimethylguanosine]
- Protein-binding ratio, HSA binding in vitro (%) (n = 3) (HSA): below 50%
- Protein-binding ratio, Normal rats in vivo (%) (n = 6) (serum protein): less than 24%

Molecule: O=C(O)c1cc(=O)[nH]c(=O)[nH]1 [Orotic acid, orotic acid]
- Protein-binding ratio, HSA binding in vitro (%) (n = 3) (HSA): below 50%
- Protein-binding ratio, Normal rats in vivo (%) (n = 6) (serum protein): less than 24%

Molecule: O=c1[nH]cc([C@@H]2O[C@H](CO)[C@@H](O)[C@H]2O)c(=O)[nH]1 [Pseudouridine, pseudouridine]
- Protein-binding ratio, HSA binding in vitro (%) (n = 3) (HSA): below 50%
- Protein-binding ratio, Normal rats in vivo (%) (n = 6) (serum protein): less than 24%

Molecule: CO[C@@]1(NC(=O)CSCC#N)C(=O)N2C(C(=O)O)=C(CSc3nnnn3C)CS[C@@H]21 [cefmetazole, reference compound]
- plasma concentrations in rats treated with PROB [7]: increased
- cmax in WT rats given 100 mg/kg vs KO rats given 60 mg/kg ([7]; i.p., 7 consecutive days): close to
- renal tubular secretion [9]: about 40%

B1: OAT3 (Homo sapiens) (protein)
chain: T2 sequence (Q8TCC7 1-542)
- Km [10]: 447.1 µM
- Vmax [10]: 133.2 pmol/mg protein/min
- Km [11]: 382.2 µM

B2: OAT1 (Homo sapiens) (protein)
chain: T1 sequence (Q4U2R8 1-563)
- Km [12]: 1,483 μM
- Vmax [12]: 323 pmol/mg protein/min
- Km [13]: 496.7 µM

Continued, in another order:

- linear uptake time (OAT1 [1]): 0 to 10 min
- renal clearance rate in rOAT1/3−/− rats vs WT (rOAT1/3; rat, in vivo): significantly decreased
- renal tissue uptake ratio in rOAT1/3−/− rats vs WT (rOAT1/3; rat, in vivo): significantly decreased
- serum levels in rOAT1/3−/− rats vs WT (rOAT1/3; rat, in vivo): significantly increased
- transport mediated by OAT4 / uptake in OAT4-overexpressing cells vs control (OAT4): significantly higher
- renal clearance rate in rMRP4−/− rats vs WT (rMRP4 [2]): did not change significantly
- renal tissue concentration in rMRP4−/− rats vs WT (rMRP4 [2]): significantly elevated
- serum levels in rMRP4−/− rats vs WT (rMRP4 [2]): did not change significantly
- levels in renal tissues in rats treated with MK-571 vs control (rMRP4 [3]; MK-571 5, 10, 20 mg/kg oral, 7 days): significantly increased
- cumulative urinary excretion in rats treated with MK-571 vs control (rMRP4 [3]; MK-571 (CMPF effect at 20 mg/kg)): significantly decreased
- renal excretion with MK-571 vs control ([4]; MK-571 20 mg/kg): did not affect
- renal excretion with PROB vs control ([4]; PROB 60 mg/kg): did not affect
- uptake at 4 °C in OAT1-overexpressing cells vs control (OAT1 [5]; 4 °C): not significantly different
- uptake of HSA-bound UT in OAT1-overexpressing cells vs control cells (OAT1 [5]; 37 °C, with HSA): dramatically increased
- Protein-binding ratio, Normal rats in vivo (%) (n = 6) (serum protein): > 90%
- uptake at 4 °C in OAT3-overexpressing cells vs control (OAT3; 4 °C): not significantly different
- uptake of HSA-bound UT in OAT3-overexpressing cells vs control cells (OAT3): dramatically increased
- cumulative urinary excretion in rats treated with PROB vs control (rOATs; 12 h urine): no significant effects
- renal uptake ratios in rats treated with PROB vs control (rOATs; [14]): decreased
- serum levels in rats treated with PROB vs control (rOATs; [14]): increased
- uptake at 4 °C in MRP4-overexpressing cells vs control (MRP4; 4 °C): not significantly different
- intracellular accumulation in MRP4-overexpressing cells vs control cells (MRP4): significantly decreased
- uptake at 4 °C in OAT1/3 and MRP4 double-transfected cells ([6]; 4 °C): no significant difference
- uptake at 37 °C in OAT1-MRP4 cells vs double control cells ([6]; 37 °C): significantly increased
- uptake at 37 °C in OAT3-MRP4 cells vs double control cells ([6]; 37 °C): significantly increased
Molecule: CCCc1oc(CCC(=O)O)c(C(=O)O)c1C [CMPF, 3-carboxy-4-methyl-5-propyl-2-furanpropanoic acid]
- uptake of free UT in OAT1-overexpressing cells vs control cells (OAT1 [5]; 37 °C): dramatically increased; also recorded: markedly higher
- uptake of free UT in OAT3-overexpressing cells vs control cells (OAT3): dramatically increased; also recorded: markedly higher

- renal elimination in rOAT1/3−/− rats (rOAT1/3): substantially inhibited
- uptake of HSA-bound UT in OAT3-overexpressing cells vs control cells (OAT3): dramatically increased
- uptake of free UT in OAT3-overexpressing cells vs control cells (OAT3): dramatically increased
- serum levels in rats treated with PROB vs control (rOATs; [14]): no significant change
- intracellular accumulation in MRP4-overexpressing cells vs control cells (MRP4): slightly decreased
Molecule: O=C(O)CNC(=O)c1ccccc1 [Hippuric acid, hippuric acid]

- serum creatinine and urea nitrogen levels (rMRP4 [3]; rats, 20 mg/kg oral, 7 days): significantly increased
- pathological changes in the kidneys (rMRP4 [3]; rats, different doses, H&E staining): No significant pathological changes
Molecule: CN(C)C(=O)CCSC(SCCC(=O)O)c1cccc(/C=C/c2ccc3ccc(Cl)cc3n2)c1 (centres unmarked) [MK-571, reference compound]
- effect on B to A transmembrane transport of CMPF [8]: substantially inhibited
- effect on B−A transport of kynurenic acid [8]: significantly reduced

- uptake of free UT in OAT1-overexpressing cells vs control cells (OAT1 [5]; 37 °C): mediated by OAT1 and OAT3
- uptake of free UT in OAT3-overexpressing cells vs control cells (OAT3): mediated by OAT1 and OAT3
- serum level in vivo (detectability by LC-MS/MS) (rOATs; rats / in vivo): below the lowest detection limit
- intracellular accumulation in MRP4-overexpressing cells vs control cells (MRP4): efflux by MRP4
Molecule: O=C(O)c1cc(O)c2cccc(O)c2n1 [xanthurenic, xanthurenic acid]

Reference: PMC10657973 (Journal of Pharmaceutical Analysis, 2023)
